Results taken from PMC9841531, “Indole Derivatives as New Structural Class of Potent and Antiproliferative Inhibitors of Monocarboxylate Transporter 1 (MCT1; SLC16A1)” (Journal of Medicinal Chemistry, 2022).

Columns and labels:
MCF-7 cancer cells = assay: MTT-based cell viability assay, MCF-7; conditions: Homo sapiens, MCF7, 72 h, read-out: MCF-7 cancer cell toxicity GI50 ± SEM
Source text: (§1) MCT1-expressing cells have an extraordinary energy demand and rely on pyruvate metabolism, through either lactate conversion or pyruvate consumption. Inhibition of MCT1 blocks lactate and pyruvate influx into cancer cells, which prevents their processing in the TCA cycle. Over time, the viability of cells exposed to an MCT1 inhibitor is impaired due to pyruvate deprivation, which is compensated by upregulating glucose metabolism—leading to an overconsumption of glucose. To confirm the antiproliferative nature of the indole derivatives, we investigated the compounds toward the MCT1-expressing cell lines A-549[14],[15] and MCF-7.[16] Cancer cell viability was assessed via a 3-(4,5-dimethylthiazol-2-yl)-2,5-diphenyltetrazolium bromide (MTT) assay, as reported earlier.[43]
(§2) To determine the growth inhibitory potential of compounds 17–32, […] of each compound either at concentrations between 1 and 100 μM (A-549 or MCF-7) or at 10 and 50 μM (NIH/3T3) was pipetted into colorless flat-bottom 96-well microplates. Thereafter, 180 μL of a cell suspension (5000 cells/well) of either A-549, MCF-7, or NIH/3T3 cells was added and subsequently kept for 72 h at 37 °C under a 5% CO2-humidified atmosphere. The cell viability as well as the GI50 values were determined as described above.[43]

A-549 cancer cells = assay: MTT-based cell viability assay, A-549; conditions: Homo sapiens, A549, 72 h, read-out: A-549 cancer cell toxicity GI50 ± SEM
Source text: as §1, §2

MCT1 [1] = target: T1, MCT1 (Homo sapiens, UniProt P53985); conditions: cited from earlier work
T1 construct: MCT1-expressing A-549 cells[14],[15] were exposed to the MCT1 substrate 3-BP, which becomes influxed by MCT1; endogenous in cells; host or cells: A-549 lung cancer cells (from NCCS, Pune)
T1 sequence (P53985 1-500): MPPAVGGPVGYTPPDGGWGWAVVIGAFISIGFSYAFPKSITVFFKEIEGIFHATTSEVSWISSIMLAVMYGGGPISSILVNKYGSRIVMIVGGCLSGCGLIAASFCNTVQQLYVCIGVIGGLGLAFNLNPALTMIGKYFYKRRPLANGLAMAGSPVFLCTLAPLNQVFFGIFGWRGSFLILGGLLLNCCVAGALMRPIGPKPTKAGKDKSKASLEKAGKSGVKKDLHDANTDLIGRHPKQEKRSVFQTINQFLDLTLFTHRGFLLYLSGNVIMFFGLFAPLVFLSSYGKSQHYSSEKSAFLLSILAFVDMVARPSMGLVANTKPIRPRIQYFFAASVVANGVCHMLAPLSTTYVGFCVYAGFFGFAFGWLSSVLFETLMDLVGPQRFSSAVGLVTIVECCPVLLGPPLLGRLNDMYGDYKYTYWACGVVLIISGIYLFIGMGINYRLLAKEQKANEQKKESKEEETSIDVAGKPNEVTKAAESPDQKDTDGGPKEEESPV
T1 sequence (P35613 140-385 partner limits assumed): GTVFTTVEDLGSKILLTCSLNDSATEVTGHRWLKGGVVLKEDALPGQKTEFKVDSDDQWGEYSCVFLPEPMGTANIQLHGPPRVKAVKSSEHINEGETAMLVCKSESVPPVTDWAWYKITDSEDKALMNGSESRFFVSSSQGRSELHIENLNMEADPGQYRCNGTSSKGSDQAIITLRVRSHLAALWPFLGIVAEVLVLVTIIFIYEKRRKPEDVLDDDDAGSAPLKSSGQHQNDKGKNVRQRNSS

MCT1 [2] = target: T1, MCT1; assay: functional 3-BP cell viability assay (MCT1 transport inhibition); format: cell-based; conditions: MCT1-expressing A-549 cells, 50 μM 3-BP, 72 h; read-out: MCT1 transport inhibition IC50 ± SEM
Description: The inhibitory activity of indole derivatives against MCT1 was determined by applying a functional 3-bromopyruvate (3-BP) cell viability assay, as described in the literature[20],[39] with minor modifications. In short, MCT1-expressing A-549 cells[14],[15] were exposed to the MCT1 substrate 3-BP, which becomes influxed by MCT1. 3-BP is toxic, leading to decreased cell viability. Functional inhibition of MCT1 results in reduced intracellular 3-BP levels and, thus, enhanced cell viability compared to no inhibition. […] Table 1 provides the half-maximal inhibition concentration (IC50) values of compounds 17–32.
A functional 3-BP cytotoxicity assay was conducted as described in the literature[20],[39] with minor modifications. Dilution series of compounds 17–32 between 1 nM and 1 μM were prepared in DPBS (Cell Clone, Genetix Biotech Asia, New Delhi India), and 10 μL of each concentration was pipetted into a colorless flat-bottom 96-well microplate (SPL Life Sciences, Gyeonggi-do, Republic of Korea). One hundred and eighty microliters of a cell suspension (5000 cells/well) of A-549 cells was added, and subsequently, 10 μL of 3-BP was added at a concentration of 1 mM (final concentration per well: 50 μM). The plate was kept for 72 h at 37 °C under a 5% CO2-humidified atmosphere. Cell viability was determined as described before[43] by adding 20 μL of a 5 mg/mL solution of MTT to each well and further incubation for 1 h. Eventually, the supernatant was removed and 100 μL of DMSO was added to each well. The absorbance was spectrophotometrically determined at 570 nm using a SpectraMax iD3 multi-mode microplate reader (Molecular Devices, San Jose, CA) with a background correction (690 nm). The determined absorbance values were correlated to the logarithmic concentrations of compounds 17–32, and IC50 values were calculated applying nonlinear regression using GraphPad Prism (version 8.4.0., San Diego, CA).

ABCB1 [3] = target: T2, ABCB1 (Homo sapiens, UniProt P08183); assay: calcein AM assay, ABCB1-expressing A2780/ADR cells; conditions: for IC50: read-out: ABCB1 calcein AM IC50 ± SEM, A2780/ADR cells, 22, 23 constrained to reference inhibitor 34; for ABCB1 inhibition: screening at 10 μM, inhibitor if 20% (+SEM) reached
T2 sequence (P08183 whole entry): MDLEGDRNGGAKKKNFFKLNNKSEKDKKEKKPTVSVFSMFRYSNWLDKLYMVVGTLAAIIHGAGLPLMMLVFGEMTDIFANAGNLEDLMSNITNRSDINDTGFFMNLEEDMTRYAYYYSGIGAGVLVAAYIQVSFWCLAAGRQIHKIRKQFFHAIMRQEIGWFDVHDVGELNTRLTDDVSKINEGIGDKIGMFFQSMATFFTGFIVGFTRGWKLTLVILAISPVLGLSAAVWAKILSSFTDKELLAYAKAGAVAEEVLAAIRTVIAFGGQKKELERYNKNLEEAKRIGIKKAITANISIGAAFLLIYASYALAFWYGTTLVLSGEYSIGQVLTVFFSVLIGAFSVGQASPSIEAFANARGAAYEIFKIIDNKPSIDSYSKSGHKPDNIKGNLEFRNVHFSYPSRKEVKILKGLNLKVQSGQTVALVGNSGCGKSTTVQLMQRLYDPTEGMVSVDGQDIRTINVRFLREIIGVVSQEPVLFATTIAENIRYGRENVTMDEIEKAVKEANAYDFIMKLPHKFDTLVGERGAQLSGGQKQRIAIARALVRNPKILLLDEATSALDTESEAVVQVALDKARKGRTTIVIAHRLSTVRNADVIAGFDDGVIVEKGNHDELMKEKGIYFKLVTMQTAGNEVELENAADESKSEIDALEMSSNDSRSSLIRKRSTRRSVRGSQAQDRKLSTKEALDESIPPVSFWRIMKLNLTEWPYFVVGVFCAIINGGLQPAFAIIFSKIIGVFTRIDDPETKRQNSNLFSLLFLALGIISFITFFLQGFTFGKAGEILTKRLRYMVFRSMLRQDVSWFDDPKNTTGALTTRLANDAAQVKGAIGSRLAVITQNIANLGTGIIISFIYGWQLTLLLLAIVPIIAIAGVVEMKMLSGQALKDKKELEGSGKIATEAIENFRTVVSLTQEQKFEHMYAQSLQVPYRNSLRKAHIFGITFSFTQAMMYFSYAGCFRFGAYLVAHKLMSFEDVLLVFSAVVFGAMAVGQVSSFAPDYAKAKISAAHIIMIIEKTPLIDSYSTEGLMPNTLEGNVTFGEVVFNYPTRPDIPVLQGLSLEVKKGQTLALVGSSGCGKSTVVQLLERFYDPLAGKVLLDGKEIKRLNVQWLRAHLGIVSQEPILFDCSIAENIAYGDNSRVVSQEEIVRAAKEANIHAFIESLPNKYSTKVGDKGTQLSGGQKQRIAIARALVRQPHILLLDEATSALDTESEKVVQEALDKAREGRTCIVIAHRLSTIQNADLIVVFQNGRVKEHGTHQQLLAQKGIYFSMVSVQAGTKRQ
Source text: (§3) To provide a detailed picture of the pharmacological profile of the indole derivatives, we investigated their modulatory nature on the most prominent ABC transporters ABCB1 (P-glycoprotein, P-gp), ABCC1, (multidrug resistance-associated protein 1, MRP1), and ABCG2 (breast cancer resistance protein, BCRP). Here, we conducted calcein AM (ABCB1),[2],[52]−[59] daunorubicin (ABCC1),[52],[58]−[60] and pheophorbide A (ABCG2)[2],[52]−[60] assays using ABCB1-expressing A2780/ADR, ABCC1-expressing H69AR, and ABCG2-expressing MDCK II BCRP cells, respectively.
(§4) The calcein AM (ABCB1),[2],[52]−[59] daunorubicin (ABCB1[52],[60] and ABCC1[52],[58]−[60]), and pheophorbide A (ABCG2)[2],[52]−[60] assays were conducted as reported earlier. […] The data was processed using GraphPad Prism version 8.4.0, and IC50 values were determined, applying three- or four-parameter logistic equations, whatever was statistically preferred.

ABCG2 = target: T3, ABCG2 (Homo sapiens, UniProt Q9UNQ0); assay: pheophorbide A assay, ABCG2-expressing MDCK II BCRP cells; conditions: for ABCG2 inhibition: screening at 10 μM, inhibitor if 20% (+SEM) reached
T3 sequence (Q9UNQ0 1-655): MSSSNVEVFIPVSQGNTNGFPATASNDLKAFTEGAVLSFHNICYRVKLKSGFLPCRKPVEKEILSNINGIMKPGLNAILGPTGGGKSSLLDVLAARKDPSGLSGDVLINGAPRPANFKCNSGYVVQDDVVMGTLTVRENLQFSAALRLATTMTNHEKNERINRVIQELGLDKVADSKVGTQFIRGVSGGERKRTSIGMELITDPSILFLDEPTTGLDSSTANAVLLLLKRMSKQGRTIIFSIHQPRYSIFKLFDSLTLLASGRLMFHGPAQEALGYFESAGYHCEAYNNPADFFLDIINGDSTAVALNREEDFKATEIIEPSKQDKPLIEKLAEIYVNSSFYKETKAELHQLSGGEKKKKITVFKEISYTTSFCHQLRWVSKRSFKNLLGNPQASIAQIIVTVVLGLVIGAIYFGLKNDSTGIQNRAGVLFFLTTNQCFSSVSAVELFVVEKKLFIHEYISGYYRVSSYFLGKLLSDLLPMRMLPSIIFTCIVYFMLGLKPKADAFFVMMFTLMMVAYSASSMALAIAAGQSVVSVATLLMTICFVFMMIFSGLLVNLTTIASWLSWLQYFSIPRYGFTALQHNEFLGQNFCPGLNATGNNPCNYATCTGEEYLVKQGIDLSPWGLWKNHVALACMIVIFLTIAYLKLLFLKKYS
Source text: as §3, §4

ABCG2 (BCRP) = target: T4, ABCG2 (BCRP) (Homo sapiens, UniProt Q9UNQ0); assay: as above; conditions: human, ABCG2-expressing MDCK II BCRP cells, probe pheophorbide A (0.5 μM final)
T4 sequence (Q9UNQ0 1-655): T3 sequence (Q9UNQ0 1-655)
Source text: as §3, §4

ABCC1 = ABCC1 (Homo sapiens, UniProt P33527); assay: daunorubicin assay, ABCC1-expressing H69AR cells; conditions: for inhibition at 10 µM: H69AR, read-out: inhibition of ABCC1 in screening; for IC50: read-out: ABCC1 daunorubicin IC50 ± SEM, H69AR cells, 22, 23 constrained to reference inhibitor 35; for ABCC1 inhibition: screening at 10 μM, inhibitor if 20% (+SEM) reached
ABCC1, sequence (P33527 whole entry): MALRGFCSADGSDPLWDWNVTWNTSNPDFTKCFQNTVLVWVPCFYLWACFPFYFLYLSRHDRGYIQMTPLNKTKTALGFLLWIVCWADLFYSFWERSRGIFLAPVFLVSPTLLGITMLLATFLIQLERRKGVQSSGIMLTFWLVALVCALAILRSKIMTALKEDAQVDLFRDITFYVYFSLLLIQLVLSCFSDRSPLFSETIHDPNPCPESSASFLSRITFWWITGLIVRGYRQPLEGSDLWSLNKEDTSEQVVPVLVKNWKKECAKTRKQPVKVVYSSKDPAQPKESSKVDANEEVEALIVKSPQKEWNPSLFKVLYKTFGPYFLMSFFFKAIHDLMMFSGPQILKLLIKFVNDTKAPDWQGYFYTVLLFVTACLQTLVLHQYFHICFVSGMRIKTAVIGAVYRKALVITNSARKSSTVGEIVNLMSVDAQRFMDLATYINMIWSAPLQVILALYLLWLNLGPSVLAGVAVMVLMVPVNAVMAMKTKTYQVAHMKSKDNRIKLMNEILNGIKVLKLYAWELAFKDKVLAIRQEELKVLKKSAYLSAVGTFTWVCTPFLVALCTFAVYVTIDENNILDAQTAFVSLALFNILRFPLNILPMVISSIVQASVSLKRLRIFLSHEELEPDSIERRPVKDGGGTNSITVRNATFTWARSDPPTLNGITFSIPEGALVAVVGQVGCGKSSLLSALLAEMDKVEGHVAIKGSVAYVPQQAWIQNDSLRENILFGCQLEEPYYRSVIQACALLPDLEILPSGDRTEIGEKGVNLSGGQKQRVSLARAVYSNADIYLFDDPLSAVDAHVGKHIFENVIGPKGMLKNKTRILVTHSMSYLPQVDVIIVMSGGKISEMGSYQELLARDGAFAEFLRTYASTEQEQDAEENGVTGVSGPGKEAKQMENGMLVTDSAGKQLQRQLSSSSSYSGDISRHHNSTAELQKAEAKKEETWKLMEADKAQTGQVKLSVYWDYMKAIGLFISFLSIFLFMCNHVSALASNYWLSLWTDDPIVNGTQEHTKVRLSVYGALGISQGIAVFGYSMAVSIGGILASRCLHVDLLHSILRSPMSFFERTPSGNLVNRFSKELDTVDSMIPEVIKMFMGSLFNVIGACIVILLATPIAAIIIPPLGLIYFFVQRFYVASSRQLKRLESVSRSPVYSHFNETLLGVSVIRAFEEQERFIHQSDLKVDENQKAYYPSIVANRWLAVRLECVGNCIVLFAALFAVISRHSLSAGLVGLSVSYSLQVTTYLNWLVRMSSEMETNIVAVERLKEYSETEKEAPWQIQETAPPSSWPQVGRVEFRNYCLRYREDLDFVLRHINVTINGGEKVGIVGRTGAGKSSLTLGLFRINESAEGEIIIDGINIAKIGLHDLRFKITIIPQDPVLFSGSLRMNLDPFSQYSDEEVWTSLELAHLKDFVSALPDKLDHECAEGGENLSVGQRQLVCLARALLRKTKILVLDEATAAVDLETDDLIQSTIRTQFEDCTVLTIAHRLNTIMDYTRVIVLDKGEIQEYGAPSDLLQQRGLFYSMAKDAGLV
Source text: as §3, §4

[4] = target: ABCB1 (P-glycoprotein, P-gp) (Homo sapiens, UniProt P08183); assay: daunorubicin assay, ABCB1-expressing A2780/ADR cells; format: cell-based; conditions: human, ABCB1-expressing A2780/ADR cells, probe daunorubicin (3 μM final); relative to reference inhibitor 34 = 100%; read-out: maximal inhibition (Imax), ABCB1 daunorubicin
ABCB1 (P-glycoprotein, P-gp), sequence (P08183 whole entry): as the sequence (P08183 whole entry) above

ABCB1 [5] = target: T2, ABCB1; assay: as above; format: cell-based; conditions: A2780/ADR cells; read-out: ABCB1 daunorubicin IC50 ± SEM

Compound	GI50 (MCF-7 cancer cells) [µM]	GI50 (A-549 cancer cells) [µM]	inhibitory power (MCT1) in the literature (MCT1 [1])	IC50 (MCT1 [2]) [µM]	IC50 (ABCB1 [3]) [µM]	ABCB1 inhibition (ABCB1 [3])	IC50 (ABCG2) [µM]	ABCG2 inhibition (ABCG2)	inhibition at 120 min, 10 μM (ABCG2 (BCRP)) [%]	inhibition at 10 µM (ABCC1) [%]	IC50 (ABCC1) [µM]	ABCC1 inhibition (ABCC1)	inhibition at 180 min [4] [%]	IC50 (ABCB1 [5]) [µM]
N#C/C(=C\c1ccc(O)cc1)C(=O)O [Compound 8, reference compound]	108 ± 3	52.7 ± 0.2	submillimolar to low micromolar concentration ranges	0.0872 ± 0.0035	–	–	–	–	–	–	–	–	–	–
COC(=O)/C(C#N)=C/c1cn(CC(=O)Nc2ccccc2OC)c2ccccc12 [Compound 22, Methyl-2-cyano-3-(1-(2-((2-methoxyphenyl)amino)-2-oxoethyl)-1H-indol-3-yl) Acrylate]	19.1 ± 0.5	26 ± 0.3	–	0.135 ± 0.002	24.3 ± 6.4	X (Compounds were considered as inhibitors if they reached 20% (+SEM) inhibition compared to the reference inhibitors 33–35; X = fulfilled)	99.5 ± 24.5	X (Compounds were considered as inhibitors if they reached 20% (+SEM) inhibition compared to the reference inhibitors 33–35; X = fulfilled)	≥ 20	≥ 20	17.3 ± 2.2	X (Compounds were considered as inhibitors if they reached 20% (+SEM) inhibition compared to the reference inhibitors 33–35; X = fulfilled)	–	–
COC(=O)/C(C#N)=C/c1cn(CC(=O)Nc2cccc(OC)c2)c2ccccc12 [Compound 23, Methyl-2-cyano-3-(1-(2-((3-methoxyphenyl)amino)-2-oxoethyl)-1H-indol-3-yl) Acrylate]	14.7 ± 0.2	25.5 ± 0.5	–	0.105 ± 0.009	5.32 ± 1.67	X (Compounds were considered as inhibitors if they reached 20% (+SEM) inhibition compared to the reference inhibitors 33–35; X = fulfilled)	43.5 ± 7.5	X (Compounds were considered as inhibitors if they reached 20% (+SEM) inhibition compared to the reference inhibitors 33–35; X = fulfilled)	≥ 20	≥ 20	19.1 ± 3.4	X (Compounds were considered as inhibitors if they reached 20% (+SEM) inhibition compared to the reference inhibitors 33–35; X = fulfilled)	–	–
COC(=O)/C(C#N)=C/c1cn(CC(=O)Nc2ccc(Br)cn2)c2ccccc12 [Compound 31, Methyl-3-(1-(2-((5-bromopyridin-2-yl)amino)-2-oxoethyl)-1H-indol-3-yl)-2-cyanoacrylate]	3.13 ± 0.23	18.8 ± 0.2	–	0.214 ± 0.032	1.4 ± 0.11	X (Compounds were considered as inhibitors if they reached 20% (+SEM) inhibition compared to the reference inhibitors 33–35; X = fulfilled)	–	–	–	–	–	X (Compounds were considered as inhibitors if they reached 20% (+SEM) inhibition compared to the reference inhibitors 33–35; X = fulfilled)	39	1.19 ± 0.12
